{"source": "patent US10765684B2", "about": "“Reduction of side effects from aromatase inhibitors used for treating breast cancer” (HAVAH THERAPEUTICS PTY LTD, priority 2005, dated 2020)", "key": {"[1]": {"details": "cited from earlier work"}, "[2]": {"details": "cited from earlier work", "remark": "listed apart in the source"}, "post-menopausal patients [3]": {"test_system": "post-menopausal patients", "details": "in vivo", "from_the_text": "The Western Ontario and McMaster Universities (WOMAC) Osteoarthritis Index™ consists of three VAS, one each pertaining to pain, joint stiffness and physical function. This then gives the WOMAC™ osteoarthritis index composite score.\nFive post-menopausal women having similar patient socio-demographic characteristics and ranging in age from 49 years to 56 years (median age 54) were selected for study. […]\n(§1) Each woman selected was subjected to four weeks of aromatase inhibitor therapy (anastrozole 1 mg (ARIMIDEX®) orally as a tablet once a day), and thereafter to an additional eight weeks of the same aromatase inhibitor therapy in combination with the oral administration of 40 mg of testosterone undecanoate as a tablet once a day. During this study, side effects associated with aromatase inhibitor treatment were measured at three separate times: prior to the first week of aromatase inhibitor therapy, following the fourth week of aromatase inhibitor therapy but before administration of testosterone undecanoate was begun, and following the eighth week of combined aromatase inhibitor and androgen replacement therapy.\nThe y axis is a visual analogue pain scale. Specifically, the y axis indicates a percentage score of a subjective quantification of pain measured out of 100."}, "post-menopausal patients [4]": {"test_system": "post-menopausal patients", "parameters": "species or system post-menopausal women", "details": "in vivo", "description": "An endocrine subscale (FACT-ES) to accompany a well-validated QOL measure called the FACT-B (Brady, M J., et al., Journal of Clinical. Oncology., Vol. 15, No. 3 (March 1997) pp. 974-986, which is incorporated in its entirety) was developed specifically for use in trials using drugs likely to cause endocrine related symptoms. See Fallowfield, L J, et al., Breast Cancer Research and Treatment, Vol. 55, No. 2, 1999, pp. 189-199, which is incorporated herein by reference in its entirety. Also, FACT-ES is a validated questionnaire designed to measure quality of life of women with breast cancer who are being treated with endocrine therapies. It consists of the FACT-B questionnaire plus an additional endocrine subscale. FACT-B (breast) consists of the FACT-G (general) QOL tool for cancer patients plus the Breast Cancer subscale. FACT-ES has been developed to measure QOL in patients receiving endocrine therapy for breast cancer. This instrument (FACT-ES) should, therefore, be sensitive to QOL changes in patients in this trial. […]\nAt the three assessment times during the study, the quality of life for each patient was assessed using standard Functional Assessment of Cancer Therapy-Endocrine Symptoms (FACT-ES) questionnaire (See FIG. 8), which questionnaire is a standard method for determining the occurrence and prominence of treatment-related symptoms and side-effects in breast cancer patients. […]"}, "[5]": {"test": "serum hormone levels in post-menopausal breast cancer patients", "assay_type": "in vivo, post-menopausal women", "details": "versus pre-therapy, FIG. 2", "from_the_text": "Five post-menopausal women having similar patient socio-demographic characteristics and ranging in age from 49 years to 56 years (median age 54) were selected for study. Each woman had been diagnosed with node-negative estrogen receptor and PR (Progesterone Receptor) positive BCa (Breast cancer), with tumor sizes ranging from 1.9 cm to 2.3 cm (median tumor size of 2.1 cm) and selected post-surgery (e.g., mastectomy, lumpectomy, or quadrantectomy for primary breast cancer) and post-chemotherapy. None had been subjected to previous attempts at hormone replacement therapy.\nas §1\nThe y axis is picomoles/L of serum."}, "post-menopausal patients [6]": {"test_system": "post-menopausal patients", "details": "in vivo", "remark": "listed apart in the source", "from_the_text": "Another embodiment of this invention involves measuring cognitive function, including processing speed, working memory, visual memory, and verbal memory.\nFive post-menopausal women having similar patient socio-demographic characteristics and ranging in age from 49 years to 56 years (median age 54) were selected for study. Each woman had been diagnosed with node-negative estrogen receptor and PR (Progesterone Receptor) positive BCa (Breast cancer), with tumor sizes ranging from 1.9 cm to 2.3 cm (median tumor size of 2.1 cm) and selected post-surgery (e.g., mastectomy, lumpectomy, or quadrantectomy for primary breast cancer) and post-chemotherapy. […]\nEach woman selected was subjected to four weeks of aromatase inhibitor therapy (anastrozole 1 mg (ARIMIDEX®) orally as a tablet once a day), and thereafter to an additional eight weeks of the same aromatase inhibitor therapy in combination with the oral administration of 40 mg of testosterone undecanoate as a tablet once a day. During this study, side effects associated with aromatase inhibitor treatment were measured at three separate times: prior to the first week of aromatase inhibitor therapy, following the fourth week of aromatase inhibitor therapy but before administration of testosterone undecanoate was begun, and following the eighth week of combined aromatase inhibitor and androgen replacement therapy. […]"}}, "data": [{"compound": "CCC1(c2ccc(N)cc2)CCC(=O)NC1=O", "note": "(stereo not shown) [aminoglutethimide]", "values": [{"measurement": "tolerability", "setting": "[1]; Cash, Brough et al 1967", "value": "poorly tolerated"}, {"measurement": "adrenal suppression", "setting": "[1]; limited the use of the drug", "value": "marked adrenal suppression"}]}, {"compound": "C[C@]12CC[C@H]3[C@@H](CCC4=CC(=O)CC[C@@]43C)[C@@H]1CC[C@@H]2O", "note": "[testosterone]", "values": [{"measurement": "testosterone broken down in the liver as it is absorbed from the gut", "setting": "[2]; oral delivery", "value": "80-90%"}, {"measurement": "testosterone broken down in the intestines by aromatase and other metabolic pathways", "setting": "[2]; oral", "value": "approximately 85%"}]}, {"compound": "CCCCCCCCCCC(=O)O[C@H]1CC[C@H]2[C@@H]3CCC4=CC(=O)CC[C@]4(C)[C@H]3CC[C@]12C", "note": "[testosterone undecanoate]", "values": [{"measurement": "oral bioavailability", "setting": "[2]; by-passes the liver via the lymphatic system", "value": "orally bioavailable"}]}, {"compound": "CC(C)(C#N)c1cc(Cn2cncn2)cc(C(C)(C)C#N)c1", "note": "[Al only, anastrozole]", "values": [{"measurement": "reported arthralgia symptoms", "setting": "post-menopausal patients [3]", "value": "elevated levels of arthralgia"}, {"measurement": "quality of life as measured by FACT-ES questionnaires", "setting": "post-menopausal patients [4]", "value": "decreased"}, {"measurement": "average estradiol (E2) serum level", "setting": "[5]; following the fourth week of aromatase inhibitor therapy (anastrozole 1 mg once a day)", "value": "drops significantly"}, {"measurement": "remainder of the serum hormone levels (T, FreeT, DHT)", "setting": "[5]; following the fourth week of aromatase inhibitor therapy", "value": "relatively unchanged"}, {"measurement": "cognitive function scores (processing speed, working memory, visual memory, verbal memory; mean Z score)", "setting": "post-menopausal patients [6]", "value": "decreased across all four ability types"}]}]}
